For experiment [1], the target named is T1, p53-Y220C DNA-binding domain (Homo sapiens, UniProt P04637, M133L/N239Y/N268D/V203A/Y220C).
T1 construct: made in house
The experiment is described as follows: Competition ITC with PK5174 (1) as coupling ligand. As to the method: We assessed the binding of 3 to the stabilized DNA-binding domain of the p53 mutant Y220C (residues 94–312) using an array of biophysical techniques. […] Because the competition titration could not be performed at a c-value of 2 or higher, it was not possible to reliably decompose ΔG into ΔH and ΔS.[25]
All ITC experiments were conducted using a Microcal iTC200 calorimeter as previously described.[14] Briefly, protein and compounds were dissolved in 25 mM KPi, pH 7.2, 150 mM NaCl, 1 mM TCEP in 5% (v/v) DMSO. The cell unit contained 80 μM protein, and 2 mM compound was used for the syringe. The ITC competition experiment was conducted using 500 μM of compound 3 and 50 μM protein for the cell sample and 2 mM of compound 1 in the syringe. The actual and apparent binding constants for 1 were calculated with MicroCal Origin software using a standard one-site model. The binding constant of 3 was then calculated using an equation for ITC displacement titrations described by Zhang and Zhang[24] [drawing 2]

The next experiment deals with T2, T-p53C-Y220C (Homo sapiens, UniProt P04637, M133L/N239Y/N268D/V203A/Y220C).
T2 construct: made in house
The experiment is described as follows: Differential scanning fluorimetry (DSF). Format: binding. As to conditions: 10 μM protein. As for the experimental part: The effect of compounds on the melting temperature of T-p53C-Y220C were monitored using SYPRO Orange (Invitrogen, USA) as a fluorescent probe, which quantitatively binds to hydrophobic protein patches exposed upon thermal denaturation. Real-time melt analysis was performed using a Corbett Rotor-Gene 6000 real-time qPCR thermocycler. Excitation and emission filters were set to 460 and 510 nm, respectively. Heating from 28 to 60 °C, a constant heating rate of 270 K/h was applied. The protein (final concentration of 10 μM) was briefly mixed with SYPRO orange (10x) in buffer (25 mM KPi pH 7.2, 150 mM NaCl, 1 mM TCEP), and compound (5 mM) dissolved in DMSO was added to give a final compound concentration of 250 μM in 5% (v/v) DMSO. The melting temperature (Tm) of the protein (10 μM) in the presence of compounds was determined from the inflection point of the melting curve. Melting temperatures were compared with control samples without compound (yielding ΔTm DSF). All samples were measured in triplicate.
For orientation: Differential scanning fluorimetry follows unfolding on heating by fluorescence.

The values below come from paper PMC4836799, “Experimental and Theoretical Evaluation of the Ethynyl Moiety as a Halogen Bioisostere” (ACS Chemical Biology, 2015).

As a reminder, the Kd is a measure of binding affinity in units of concentration.

Each structure is given as a SMILES string. Several values for one entry are separate records, joined by “and”; a condition that tells them apart may be missing. Identical values can stand only once.

Consider `C#Cc1cc(C#CCOc2ccccc2)cc(CN2CCC(N(CC)CC)CC2)c1O` [PK5211, 2-((4-(diethylamino)piperidin-1-yl)methyl)-6-ethynyl-4-(3-phenoxyprop-1-ynyl)phenol], for which the Kd in experiment [1] (competition with PK5174 (1), 500 μM compound 3, equation of Zhang and Zhang, read-out: KD determined indirectly by competition ITC) was ~270 µM and 271 µM. The loss in affinity result in experiment [1] (ethynyl compound 3 versus iodo compound 2) is listed as “approximately 13 fold”. In addition, the “thermal stabilization of the mutant protein (Tm)” value on T-p53C-Y220C is on record as “concentration-dependent thermal stabilization”; at T-p53C-Y220C (listed as 3) it was “concentration-dependent increase of the protein melting point”.
